SMILES strings stand for the structures. Calls of active or inactive are those of the source. The rule behind the calls is not given here.

Type in all cases: functional, cell-based
Assay [1] has as its system HT-29. The assay is described as follows: Cytotoxicity against human HT-29 cells assessed as cell survival after 96 hrs by SRB assay. The conditions noted are these: HT-29, 96 h. A general note: The SRB assay estimates cell density from bound dye.
Assay [2] has as its system A2780. The assay is described as follows: Cytotoxicity against human A2780 cells assessed as cell survival after 96 hrs by SRB assay. The settings on record: A2780, 96 h.
Assay [3] is described as follows: Cytotoxicity against human DLD1 cells assessed as cell survival after 96 hrs by SRB assay. The settings on record: DLD-1, 96 h.
A short description of assay [4]: Cytotoxicity against human A253 cells assessed as cell survival after 96 hrs by SRB assay. The conditions noted are these: A253, 96 h.
Assay [5] can be described thus: Cytotoxicity against human HCT8 cells assessed as cell survival after 96 hrs by SRB assay. The settings on record: HCT-8, 96 h.
For assay [6], the system named is A2780. Kind of assay: Induction of apoptosis in human A2780 cells assessed as DNA fragmentation at IC90 after 24 hrs by DNA-laddering assay.
Assay [7] has as its system A2780. Kind of assay: Induction of apoptosis in human A2780 cells assessed as intact cell membrane at IC90 after 24 hrs by trypan blue exclusion assay.

On to `CC(=O)O[C@@H]1CC[C@@]2(C)[C@@H](CC[C@]3(C)[C@@H]2C(=O)C=C2[C@@H]4[C@@H](C)[C@H](C)CC[C@]4(C)CC[C@]23C)[C@@]1(C)C(=O)O` [AKBA], for which the IC50 (usually the concentration at which inhibition is half-maximal) in assay [1] turned out to be 19.4 µM; in assay [2], 14.1 µM; in assay [3], 20.9 µM; in assay [4], 16.9 µM; in assay [5] it was 17.5 µM.
`COC(=O)[C@@]1(C)C(=O)C(O)=C[C@]2(C)[C@H]3C(=O)C=C4[C@@H]5[C@@H](C)[C@H](C)CC[C@]5(C)CC[C@@]4(C)[C@]3(C)CC[C@@H]12`: the IC50 was found to be 29.9 µM in assay [1]; 41.1 µM in assay [2]; 34.1 µM in assay [3]; 42.3 µM in assay [4]; 39.7 µM in assay [5].
The corresponding values for `COC(=O)[C@@]1(C)/C(=N/O)CC[C@@]2(C)[C@H]1CC[C@]1(C)[C@@H]2C(=O)C=C2[C@@H]3[C@@H](C)[C@H](C)CC[C@]3(C)CC[C@]21C` are 15.4 µM, 18 µM, 13.7 µM, 15.5 µM and 16.4 µM.
Consider `C[C@H]1[C@H](C)CC[C@]2(C)CC[C@]3(C)C(=CC(=O)[C@@H]4[C@@]5(C)CC[C@H](N)[C@](C)(C(=O)O)[C@@H]5CC[C@]43C)[C@H]12`, for which the IC50 in assay [1] was found to be 8.7 µM; in assay [2], 7.3 µM; in assay [3], 9.9 µM; in assay [4], 5.6 µM; in assay [5], 12.5 µM. Moreover, the outcome in assay [6] and in assay [7] was Active.
Consider `C[C@H]1[C@H](C)CC[C@]2(C)CC[C@]3(C)C(=CC(=O)[C@@H]4[C@@]5(C)CCC(=O)[C@@H](C)[C@@H]5CC[C@]43C)[C@H]12`, for which the 50% inhibitory concentration (IC50) is 28.2 µM in assay [1]; 23.5 µM in assay [2]; 57.3 µM in assay [3]; 39.4 µM in assay [4]; 30.2 µM in assay [5].
Take `C[C@H]1[C@H](C)CC[C@]2(C)CC[C@]3(C)C(=CC=C4[C@@]5(C)CC[C@@H](O)[C@](C)(CO)[C@@H]5CC[C@]43C)[C@H]12`: the IC50 in assay [1] was 23.9 µM; in assay [2] it was 43.2 µM; in assay [3], 19.5 µM; in assay [4], 18.1 µM; in assay [5], 31.3 µM.
For the molecule `COC(=O)[C@]1(C)[C@@H]2CC[C@]3(C)[C@H](C(=O)C=C4[C@@H]5[C@@H](C)[C@H](C)CC[C@]5(C)CC[C@]43C)[C@@]2(C)CC1(O)C(=O)O` (some centres not stated), the IC50 was found to be 51.4 µM in assay [1]; 53.6 µM in assay [2]; 56.1 µM in assay [3]; 54.9 µM in assay [4]; 46.9 µM in assay [5].
For `COC(=O)[C@@]1(C)[C@@H](C(=O)O)CC[C@@]2(C)[C@H]1CC[C@]1(C)[C@@H]2C(=O)C=C2[C@@H]3[C@@H](C)[C@H](C)CC[C@]3(C)CC[C@]21C`, in that order: 34.1 µM, 35.4 µM, 42.7 µM, 38.2 µM and 41.7 µM.
Take `C[C@H]1[C@H](C)CC[C@]2(C)CC[C@]3(C)C(=CC(=O)[C@@H]4[C@@]5(C)CC[C@@H](O)[C@](C)(C(=O)O)[C@@H]5CC[C@]43C)[C@H]12` [11-KETO BOSWELLIC ACID]: the IC50 worked out at 71.9 µM in assay [1]; 37.9 µM in assay [2]; 57.7 µM in assay [3]; 45.9 µM in assay [4]; 44.6 µM in assay [5].
For the molecule `COC(=O)[C@@]1(C)C=CC[C@@]2(C)[C@H]1CC[C@]1(C)[C@@H]2C(=O)C=C2[C@@H]3[C@@H](C)[C@H](C)CC[C@]3(C)CC[C@]21C`, the 50% inhibitory concentration (IC50) turned out to be 30.2 µM in assay [1]; 40.1 µM in assay [2]; 32.9 µM in assay [3]; 40.2 µM in assay [4]; 39.4 µM in assay [5].
